Laboratory results: article PMC7717565, “Structure of the Lifeact–F-actin complex” (PLoS Biology, 2020)
Where no end group is shown, it is not given here.

Legend:
F-actin [1] = details: ref [5],[6]; cited from earlier work
Source text: Phalloidin and jasplakinolide are cyclic peptides derived from the death cap mushroom Amanita phalloides and marine sponge Jaspis johnstoni, respectively. They bind specifically to filamentous actin (F-actin), and when fused to a fluorescent probe, their derivatives allow visualization of the cell cytoskeleton by fluorescence microscopy. […] Recent electron cryo-microscopy (cryo-EM) studies from our group and others have uncovered h ...

[2] = tested on: HEK 293T cells intoxicated with PTC3; assay: Intoxication competition assay with PTC3 in HEK 293T cells (cell area); assay type: cell-based, human; details: 300 pM PTC3, 5 h, mCherry fusion expressed
[3] = tested on: F-actin in yeast cells, actin D25Y/D222G; assay type: cell-based, Saccharomyces cerevisiae; details: confocal microscopy, Fig 2C, endogenous actin replaced with D25Y variant
[4] = tested on: F-actin in yeast cells, WT actin; assay type: cell-based, Saccharomyces cerevisiae; details: for weighted colocalization coefficient of phalloidin with Lifeact–mCherry: native ABP140 promoter, fixed cells, ActinGreen 488, Fig 2B, mean of 15 cells from 2 independent experiments
TccC3HVR = assay: ADP-ribosylation of actin by TccC3HVR; assay type: biochemical, Photorhabdus luminescens; details: for ADP-ribosylation level of actin (0 uM Lifeact = 1): Lifeact 100 uM, pH 8, 10 min 37°C
[5] = tested on: F-actin in yeast cells, actin L349M; assay type: cell-based, Saccharomyces cerevisiae; details: confocal microscopy, Fig 2C, endogenous actin replaced with L349M variant
[6] = tested on: motor domain of human NM2C binding to F-actin; assay: Competition cosedimentation of F-actin with NM2C motor domain; details: for fraction of myosin cosedimented with F-actin: Lifeact 100 uM, F-actin 0.2 μM, NM2C 0.2 μM, pH 8
Method: The motor domain of nonmuscular myosin-2C (MYH14, isoform 2 from Homo sapiens) consisting of amino acids 1–799 was purified as described previously [32]
Then, actin was polymerized by incubation in F-buffer (120 mM KCl, 20 mM Tris pH 8, 2 mM MgCl2, 1 mM DTT, and 1 mM ATP) for 2 hours at room temperature or overnight at 4°C. For the cosedimentation experiments with myosin and tropomyosin, a 2-fold molar excess of phalloidin was added after the polymerization. Then, the actin filaments were pelleted using a TLA-55 rotor at 150,000 g for 30 minutes and resuspended in the following buffers: F-buffer was used for cosedimentations with tropomyosin or Lifeact–mCherry fusion proteins; 20 mM HEPES pH 6.5, 50 mM KCl, and 2 mM MgCl2 was used for cosedimentations with cofilin; and 120 mM KCl, 20 mM Tris pH 8, 2 mM MgCl2, and 1 mM DTT was used for cosedimentations with myosin.
(§1) For the competition assays, Lifeact peptide was added to the mixture at the specified concentrations. […] The Kd values were calculated as previously described using GraphPad Prism software (GraphPad Software, USA) [34].
The error bars correspond to standard deviations of 3 independent experiments.

[7] = tested on: ExoY-MBP binding to F-actin; assay: Competition cosedimentation of F-actin with ExoY-MBP; design: species or system Pseudomonas aeruginosa ExoY; rabbit actin; details: for fraction of ExoY cosedimented with F-actin: Lifeact 300 uM, F-actin 1 μM, ExoY-MBP 1 μM
[8] = tested on: human cofilin-1 binding to F-actin; assay: Competition cosedimentation of F-actin with cofilin-1; details: Lifeact 100 uM, F-actin 4 μM, cofilin-1 4 μM, pH 6.5
Method: (§2) An aliquot of freshly thawed G-actin was centrifuged at 150,000 g using a TLA-55 rotor for 30 minutes at 4°C to remove possible aggregates. Then, actin was polymerized by incubation in F-buffer (120 mM KCl, 20 mM Tris pH 8, 2 mM MgCl2, 1 mM DTT, and 1 mM ATP) for 2 hours at room temperature or overnight at 4°C. For the cosedimentation experiments with myosin and tropomyosin, a 2-fold molar excess of phalloidin was added after the polymerization. Then, the actin filaments were pelleted using a TLA-55 rotor at 150,000 g for 30 minutes and resuspended in the following buffers: F-buffer was used for cosedimentations with tropomyosin or Lifeact–mCherry fusion proteins; 20 mM HEPES pH 6.5, 50 mM KCl, and 2 mM MgCl2 was used for cosedimentations with cofilin; and 120 mM KCl, 20 mM Tris pH 8, 2 mM MgCl2, and 1 mM DTT was used for cosedimentations with myosin.
as §1
(§3) Representative gels are shown. […] The error bars correspond to standard deviations of 3 independent experiments.

F-actin [9] = target: F-actin (Oryctolagus cuniculus, UniProt P68135); assay: Cosedimentation of Lifeact–mCherry with F-actin; assay type: binding, Rabbit (skeletal muscle α-actin); design: Bmax Value: unit not given here
[10] = tested on: human tropomyosin alpha-1 binding to F-actin; assay: Competition cosedimentation of F-actin with tropomyosin; details: Lifeact 100 uM, F-actin 3 μM, tropomyosin 3 μM
Method: as §2, §1, §3

[11] = tested on: F-actin-rich patch in yeast cells; assay type: cell-based, Saccharomyces cerevisiae; details: Fig 3D
[12] = tested on: F-actin-rich patch in yeast cells; assay type: cell-based, Saccharomyces cerevisiae; details: Fig 3E

jasplakinolide
effect on F-actin (F-actin [1]): strongly stabilize F-actin

WT Lifeact–mCherry: wild-type Lifeact fused to mCherry [reference compound]
effect on PTC3/TccC3HVR toxicity (cytoskeletal collapse, shrinkage) [2]: significantly reduced
actin-rich structures stained by Lifeact–mCherry [3]: absent
actin-rich structures (patches, cables, contractile rings) stained by Lifeact–mCherry ([4]; confocal microscopy, Fig 2A): typical actin-rich assemblies such as patches, cables, and contractile rings
weighted colocalization coefficient of phalloidin with Lifeact–mCherry [4]: 0.9009
factor of decrease of the level of ADP ribosylation (TccC3HVR; 3 μM): 2
actin-rich structures stained by Lifeact–mCherry [5]: absent

F10A Lifeact: Lifeact F10A mutant peptide, which only binds weakly to F-actin (MGVADLIKKAESISKEE)
effect on myosin binding to F-actin ([6]; Fig 4B, 4C): nor could F10A Lifeact compete with cofilin-1 or NM2C
fraction of myosin cosedimented with F-actin ([6]; 1st repeat): 0.8484
fraction of myosin cosedimented with F-actin ([6]; 2nd repeat): 0.9522
fraction of myosin cosedimented with F-actin ([6]; 3rd repeat): 0.8926
fraction of myosin cosedimented with F-actin ([6]; mean of 3): 0.8977
effect on ExoY binding to F-actin ([7]; Fig 5A, 5B): did not impair formation of the ExoY-F-actin complex
fraction of ExoY cosedimented with F-actin ([7]; 1st repeat): 0.8832
fraction of ExoY cosedimented with F-actin ([7]; 2nd repeat): 0.8982
fraction of ExoY cosedimented with F-actin ([7]; 3rd repeat): 0.9357
fraction of ExoY cosedimented with F-actin ([7]; mean of 3): 0.9057
fraction of cofilin cosedimented with F-actin ([8]; 1st repeat): 0.5246
fraction of cofilin cosedimented with F-actin ([8]; 2nd repeat): 0.4576
fraction of cofilin cosedimented with F-actin ([8]; 3rd repeat): 0.5496
fraction of cofilin cosedimented with F-actin ([8]; mean of 3): 0.5106
effect on the level of ADP-ribosylation (TccC3HVR; 100 μM, control reaction): did not decrease the level of ADP-ribosylation at all
ADP-ribosylation level of actin (0 uM Lifeact = 1) (TccC3HVR; 1st repeat): 1.142
ADP-ribosylation level of actin (0 uM Lifeact = 1) (TccC3HVR; 2nd repeat): 1.587
ADP-ribosylation level of actin (0 uM Lifeact = 1) (TccC3HVR; 3rd repeat): 0.8227
ADP-ribosylation level of actin (0 uM Lifeact = 1) (TccC3HVR; mean of 3): 1.184
binding to F-actin (F-actin [9]; in words, no value): only binds weakly to F-actin
fraction of tropomyosin cosedimented with F-actin ([10]; 1st repeat): 0.4801
fraction of tropomyosin cosedimented with F-actin ([10]; 2nd repeat): 0.5601
fraction of tropomyosin cosedimented with F-actin ([10]; 3rd repeat): 0.4901
fraction of tropomyosin cosedimented with F-actin ([10]; mean of 3): 0.5101

Phalloidin
effect on F-actin (F-actin [1]): strongly stabilize F-actin

E17K: Lifeact E17K variant fused to mCherry (MGVADLIKKFESISKEK; also: fused to mCherry, His tag, end not given here)
effect on PTC3/TccC3HVR toxicity (cytoskeletal collapse, shrinkage) [2]: significantly reduced
staining of actin-rich structures compared with WT ([4]; confocal microscopy, Fig 2A): stained actin-rich structures in a similar way as WT Lifeact
weighted colocalization coefficient of phalloidin with Lifeact–mCherry [4]: 0.8293
change of average Lifeact–mCherry to phalloidin signal ratio vs WT [11]: insignificant increase
change of average patch to background signal ratio vs WT [12]: insignificant increase
Bmax Value (F-actin [9]; 3 μM Lifeact–mCherry, F-buffer pH 8, fit value, Std dev in next column): 0.9222
Kd (F-actin [9]; 3 μM Lifeact–mCherry, F-buffer pH 8, full-precision fit value, Std dev in next column, unit as printed in Fig 3C): 8.08 µM
